In patent US8962843B2, “1,3,4-oxadiazole and 1,3,4-thiadiazole beta-lactamase inhibitors” (priority 2012, dated 2015):
Where a name gives a salt, the structure may show the parent alone.

What was measured:
[1] = tested on: bacterial strains that express the class D cephalosporinase OXA-15; experiment: Standard BLI potentiation MIC / synergy MIC assays, strains expressing OXA-15; type: cell-based, E. coli; conditions: in combination with a β-lactam; comparator Avibactam (CCC)
Method in brief: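 Broth microdilution in cation-adjusted Mueller Hinton broth per CLSI M07-A9, ~10^5 CFU/mL, 18-20 h at 37 °C with aeration; engineered E. coli carrying β-lactamase plasmids kept on 25 μg/mL tetracycline. β-lactam MIC measured in 2-fold dilutions (128-0.13 μg/mL) with BLI fixed at 4 μg/mL; sMIC titrates BLI against a fixed β-lactam concentration. MIC = lowest concentration without visible turbidity.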

[2] = tested on: bacterial strains that express KPC β-lactamases; experiment: Standard BLI potentiation MIC / synergy MIC assays, strains expressing KPC β-lactamases; type: cell-based; conditions: in combination with a β-lactam; comparator Avibactam
Description: The experimental protocol was performed according to Clinical and Laboratory Standards Institute (CLSI) guidelines with modifications as described below (CLSI guidelines can be derived from the CLSI document M07-A9 published in January 2012: “Methods for Dilution Antimicrobial Susceptibility Tests for Bacteria That Grow Aerobically; Approved Standard-Ninth Edition”).
To prepare for MIC testing, frozen glycerol stocks of clinical isolates (Klebsiella pneumoniae, Eschericia coli, Enterobacter spp, Citrobacter spp, or Pseudomonas aeruginosa) were used to streak for isolated colonies on rich, non-selective, tryptic soy agar containing 5% sheep's blood (TSAB). Frozen glycerol stocks of laboratory engineered, isogenic E. coli strains, which contain cloned β-lactamase expressing plasmids were used to streak for isolated colonies on rich, selective LB agar supplemented with 25 μg/mL tetracycline to maintain the plasmid. All strains were incubated at 37° C. for 18-24 hrs.
On the day of testing, primary cultures were started by scraping off 5-10 colonies from the TSAB plates containing clinical strains or the tetracycline supplemented LB plates containing engineered strains. The clinical strain material was suspended in ˜5 mL of cation adjusted Mueller Hinton Broth (CAMHB) in 14 mL culture tubes. The engineered strain material was suspended in CAMHB (supplemented with 25 μg/mL tetracycline) in 14 mL culture tubes. All strains were incubated at 37° C. with aeration (200 rpm) for ˜2 hrs until the optical density at 600 nm (OD600) was >0.1.
The two compound components of the assay were each diluted in CAMHB and added to the 96-well broth microdilution assay plates. 50 μL of the β-lactam was added to each well of the assay plate in 2-fold dilutions with final concentrations ranging from 128 to 0.13 μg/mL. 25 μL of the BLI compound was added to all wells in the broth microdilution plates at a final concentration of 4 μg/mL. Inoculum cultures were prepared by standardizing the primary cultures to OD600=0.1 and then adding 20 μL of the adjusted primary culture per 1 mL CAMHB for clinical strains or CAMHB (supplemented with tetracycline at 100 μg/mL) for engineered strains, so that the final inoculum density was ˜10^5 colony forming units per milliliter. Diluted inoculum cultures were used to inoculate 25 μl, per well in 96-well broth microdilution assay plates. The final volume of each well was 100 μL and contained a β-lactam at different concentrations, a BLlcompound at 4 μg/mL concentration, the bacterial culture at an OD600 of approximately 0.001 and when necessary tetracycline at 25 μg/mL.
Plates were incubated for 18-20 hours at 37° C. with aeration (200 rpm). Following incubation, growth was confirmed visually placing plates over a viewing apparatus (stand with a mirror underneath) and then OD600 was measured using a SpectraMax 340PC384 plate reader (Molecular Devices, Sunnyvale, Calif.). Growth was defined as turbidity that could be detected with the naked eye or achieving minimum OD600 of 0.1. MIC values were defined as the lowest concentration producing no visible turbidity.
The synergy MIC (sMIC) assay determines the concentration of the BLI required to potentiate the activity of a fixed concentration of a β-lactam antibiotic against β-lactamase producing bacterial strains. The experimental protocol was performed according to Clinical and Laboratory Standards Institute (CLSI) guidelines with modifications as described below (CLSI guidelines can be derived from the CLSI document M07-A9 published in January 2012: “Methods for Dilution Antimicrobial Susceptibility Tests for Bacteria That Grow Aerobically; Approved Standard-Ninth Edition”). […]

Row | Structure (SMILES) | activity against bacterial strains that express the class D cephalosporinase OXA-15, compared with Avibactam [1] | activity and/or spectrum of activity against bacterial strains that express KPC β-lactamases, compared with Avibactam [2]
1 | N=C(N)NC1(Cc2nnc([C@@H]3CC[C@@H]4CN3C(=O)N4OS(=O)(=O)O)o2)CC1 [Compound 739, (2S,5R)-2-(5-((1-guanidinocyclopropyl)methyl)-1,3,4-oxadiazol-2-yl)-7-oxo-1,6-diazabicyclo[3.2.1]octan-6-yl hydrogen sulfate] | more active than Avibactam | more active than Avibactam for at least one, bacterial strain that expresses KPC β-lactamase and/or show a better spectrum of activity
2 | O=C1N2C[C@@H](CC[C@H]2c2nnc(CN[C@H]3CCNC3)o2)N1OS(=O)(=O)O [Compound 765, (2S,5R)-7-oxo-2-(5-(((S)-pyrrolidin-3-ylamino)methyl)-1,3,4-oxadiazol-2-yl)-1,6-diazabicyclo[3.2.1]octan-6-yl hydrogen sulfate] | more active than Avibactam | more active than Avibactam for at least one, bacterial strain that expresses KPC β-lactamase and/or show a better spectrum of activity
3 | O=C1N2C[C@@H](CC[C@H]2c2nnc(CCNC3CNC3)o2)N1OS(=O)(=O)O [Compound 745, (2S,5R)-2-(5-(2-(azetidin-3-ylamino)ethyl)-1,3,4-oxadiazol-2-yl)-7-oxo-1,6-diazabicyclo[3.2.1]octan-6-yl hydrogen sulfate] | more active than Avibactam | more active than Avibactam for at least one, bacterial strain that expresses KPC β-lactamase and/or show a better spectrum of activity
4 | N[C@@H]1CC[C@H](c2nnc([C@@H]3CC[C@@H]4CN3C(=O)N4OS(=O)(=O)O)o2)C1 [Compound 729, (2S,5R)-2-(5-((1S,3R)-3-aminocyclopentyl)-1,3,4-oxadiazol-2-yl)-7-oxo-1,6-diazabicyclo[3.2.1]octan-6-yl hydrogen sulfate] | more active than Avibactam | more active than Avibactam for at least one, bacterial strain that expresses KPC β-lactamase and/or show a better spectrum of activity
5 | N=C(N)NCCc1nnc([C@@H]2CC[C@@H]3CN2C(=O)N3OS(=O)(=O)O)o1 [Compound 705, (2S,5R)-2-(5-(2-guanidinoethyl)-1,3,4-oxadiazol-2-yl)-7-oxo-1,6-diazabicyclo[3.2.1]octan-6-yl hydrogen sulfate] | more active than Avibactam | more active than Avibactam for at least one, bacterial strain that expresses KPC β-lactamase and/or show a better spectrum of activity
6 | O=C1N2C[C@@H](CC[C@H]2c2nnc(CNC3CNC3)o2)N1OS(=O)(=O)O [Compound 726, (2S,5R)-2-(5-((azetidin-3-ylamino)methyl)-1,3,4-oxadiazol-2-yl)-7-oxo-1,6-diazabicyclo[3.2.1]octan-6-yl hydrogen sulfate] | more active than Avibactam | more active than Avibactam for at least one, bacterial strain that expresses KPC β-lactamase and/or show a better spectrum of activity
7 | O=C1N2C[C@@H](CC[C@H]2c2nnc(C3CC4(CNC4)C3)o2)N1OS(=O)(=O)O [Compound 750, (2S,5R)-2-(5-(2-azaspiro[3.3]heptan-6-yl)-1,3,4-oxadiazol-2-yl)-7-oxo-1,6-diazabicyclo[3.2.1]octan-6-yl hydrogen sulfate] | more active than Avibactam | more active than Avibactam for at least one, bacterial strain that expresses KPC β-lactamase and/or show a better spectrum of activity
